Test results reported in US9725469B2, “Amino-oxazine and amino-dihydrothiazine compounds as beta-secretase modulators and methods of use” (Amgen Inc., priority 2012, dated 2017).

Assays:
beta amyloid = settings: patients in early stages of Alzheimer's Disease; cited from earlier work
[1] = people of the terminated Ph I dosing trial; cited from earlier work
[2] = tested on: pigment epithelium of the rat's eye; settings: higher compound dose given for three months; cited from earlier work
[3] = target: BACE 1 (beta secretase enzyme) (Homo sapiens, UniProt P56817); assay: In vitro enzymatic BACE FRET assay; type: biochemical; settings: average IC50, pH 4.2
Protocol: In Vitro Enzymatic BACE FRET (Fluorescence Resonance Energy Transfer) Assay
The assay buffer used in this screen is 0.05 M acetate, pH 4.2, 10% DMSO final, 100 uM genapol (which is a nonionic detergent, below its Critical Micelle Concentration). The beta secretase enzyme (0.2 nM) is pre-incubated for one hour with inhibitors, typically in about 1 uL of DMSO according to a serial dilution, are added thereto. This assay is effectively started by the addition of FRET substrate (50 nM) and the combination is incubated for one hour. The FRET assay is terminated with by addition of Tris buffer, which raises the pH to neutrality, and the fluorescence is determined. The FRET substrate is a peptide with commercially available fluorophore and quencher, on opposite sides of the BACE cleavage site. Proteolytic cleavage of the FRET substrate releases quenching of fluorescence (excitation […] and […]).

[4] = tested on: Aβ40 in conditioned medium of cells stably expressing Amyloid Precursor Protein (APP); assay: In vitro BACE cell-based assay (HEK cell assay, Aβ40 sandwich ELISA); settings: Homo sapiens, HEK293; average IC50, Aβ40, 24 h incubation
Protocol: In Vitro BACE Cell-Based Assay
The cell-based assay measures inhibition or reduction of Aβ40 in conditioned medium of test compound treated cells expressing amyloid precursor protein.
Cells stably expressing Amyloid Precursor Protein (APP) were plated at a density of 40K cells/well in 96 well plates (Costar). The cells were cultivated for 24 hours at 37° C. and 5% CO2 in DMEM supplemented with 10% FBS. The test compounds were then added to cells in 10-point dose response concentrations with the starting concentration being either 100 μM or 10 μM. The compounds were diluted from stock solutions in DMSO and the final DMSO concentration of the test compounds on cells was 0.1%. After 24 h of incubation with the test compounds the supernatant conditioned media was collected and the Aβ 40 levels were determined using a sandwich ELISA. The IC50 of the compound was calculated from the percent of control or percent inhibition of Aβ 40 as a function of the concentration of the test compound.
The sandwich ELISA to detect Aβ 40 was performed in 96 well microtiter plates, which were pre-treated with goat anti-rabbit IgG (Pierce). The capture and detecting antibody pair that were used to detect Aβ 40 from cell supernatants were affinity purified pAb40 (Biosource) and biotinylated 6E10 (Signet Labs Inc.), respectively. The optimal concentration for the pAb40 antibody was 3 μg/ml in Superblock/TBS (Pierce) that was supplemented with 0.05% Tween 20 (Sigma). Optimal concentration for the detection antibody 6E10-biotinylated was 0.5 μg/ml in Superblock/TBS (Pierce) that had been supplemented with 2% normal goat serum and 2% normal mouse serum.
Cellular supernatants were incubated with the capture antibody for 3 h at 4° C., followed by 3 wash steps in TBS-tween (0.05%). The detecting antibody incubation was for 2 h at 4° C., again followed by the wash steps as described previously. The final readout of the ELISA is Time-Resolved Fluorescence (counts per minute) using Delfia reagents Streptavidin-Europium and Enhancement solutions (Perkin Elmer) and the Victor 2 multilabel counter (Perkin Elmer).

Cathepsin D = target: T1, Cathepsin D (Homo sapiens, UniProt P07339); assay: In vitro enzymatic Cat D (Cathepsin D) FRET assay; type: biochemical; settings: average IC50, pH 3.5
T1 construct: made in house; host or cells: CHO cells
Protocol: In Vitro Enzymatic Cat D (Cathepsin D) FRET (Fluorescence Resonance Energy Transfer) Assay
Recombinant CathepsinD was expressed in CHO cells. The assay buffer for CathepsinD is 0.05 M citrate pH 3.5, 10% DMSO final, 5 mM CHAPS. The CathepsinD enzyme (9 nM) is pre-incubated for one hour with inhibitors, typically in about 1 uL of DMSO according to a serial dilution, is added thereto. The assays are effectively started by the addition of different FRET substrates (20 nM for CathepsinD) and the combination is incubated for one hour. The FRET assay is terminated with by addition of Tris buffer, which raises the pH to neutrality, and the fluorescence is determined. The FRET substrate is a peptide with commercially available fluorophore and quencher, on opposite sides of the BACE cleavage site. The CathepsinD substrate peptide sequence is based on sequence #1 of Table 1 from Gulnik et al. FEBS Letters v413 p 379-384 1997. Proteolytic cleavage of the FRET substrate releases quenching of fluorescence (CathepsinD excitation 500 nm and emission 580 nm). […]

Abeta 40 = assay: In vivo inhibition of beta-secretase: Abeta 40 reduction in rat CSF and brain; settings: after 4 hrs; for % reduction of rat CSF Abeta 40 levels at 10 mpk: Abeta 40, rat CSF; for % reduction of rat brain levels at 10 mpk: Abeta 40, rat brain
Source text: In Vivo Inhibition of Beta-Secretase
Several animal models, including mouse, rat, dog, and monkey, may be used to screen for inhibition of beta-secretase activity in vivo following administration of a test compound sample. Animals used in this invention can be wild type, transgenic, or gene knockout animals. For example, the Tg2576 mouse model, prepared and conducted as described in Hsiao et al., 1996, Science 274, 99-102, and other non-transgenic or gene knockout animals are useful to analyze in vivo inhibition of Amyloid beta peptide (Abeta) production in the presence of inhibitory test compounds. Generally, 2 to 18 month old Tg2576 mice, gene knockout mice or non-transgenic animals are administered test compounds formulated in vehicles, such as cyclodextran, phosphate buffers, hydroxypropyl methylcellulose or other suitable vehicles. One to twenty-four hours following the administration of compound, animals are sacrificed, and brains as well as cerebrospinal fluid (CSF) and plasma are removed for analysis of A-beta levels and drug or test compound concentrations (Dovey et al., 2001, Journal of Neurochemistry, 76, 173-181) Beginning at time 0, animals are administered by oral gavage, or other means of delivery such as intravenous injection, an inhibitory test compound of up to 100 mg/kg in a standard, conventional formulation, such as 2% hydroxypropyl methylcellulose, 1% Tween80. A separate group of animals receive 2% hydroxypropyl methylcellulose, 1% Tween80 alone, containing no test compound, and serve as a vehicle-control group. At the end of the test period, animals are sacrificed and brain tissues, plasma or cerebrospinal fluid are collected. Brains are either homogenized in 10 volumes (w/v) of 0.2% diethylamine (DEA) in 50 mM NaCl (Best et al., 2005, Journal of Pharmacology and Experimental Therapeutics, 313, 902-908), or in 10 volumes of 0.5% TritonX-100 in Tris-buffered saline (pH at about 7.6). Homogenates are centrifuged at 355,000 g, 4° C. for 30 minutes. CSF or brain supernatants are then analyzed for the presence of A-beta peptide by specific sandwich ELISA assays based on ECL (Electrochemiluminescence) technology. For example, rat Abeta40 is measured using biotinylated-4G8 (Signet) as a capture antibody and Fab40 (an in-house antibody specific to the C-terminal of Abeta40) as a detection antibody. For example, 4 hours after administration of 30 mg/kg oral dose of the test compound in 2% hydroxypropyl methylcellulose, 1% Tween80 (pH2.2) to 200 g male Sprague Dawley rats, amyloid beta peptide levels are measured for reduction by X % and Y % in cerebrospinal fluid and brain, respectively, when compared to the levels measured in the vehicle-treated rats.
Actual vehicles used: Oral: 2% HPMC, 1% Tween80, pH 2.2
The compounds of the invention may be shown to reduce the formation and/or deposition of amyloid beta peptide in the cerebrospinal fluid (CSF) as well as in the brain of a mouse or rat at either 3 mpk, 10 mpk or 30 mpk (mpk=mg compound per kg weight of the animal) dosing concentrations after 4 hrs.

BACE 1 (beta secretase enzyme), sequence (P56817 46-501): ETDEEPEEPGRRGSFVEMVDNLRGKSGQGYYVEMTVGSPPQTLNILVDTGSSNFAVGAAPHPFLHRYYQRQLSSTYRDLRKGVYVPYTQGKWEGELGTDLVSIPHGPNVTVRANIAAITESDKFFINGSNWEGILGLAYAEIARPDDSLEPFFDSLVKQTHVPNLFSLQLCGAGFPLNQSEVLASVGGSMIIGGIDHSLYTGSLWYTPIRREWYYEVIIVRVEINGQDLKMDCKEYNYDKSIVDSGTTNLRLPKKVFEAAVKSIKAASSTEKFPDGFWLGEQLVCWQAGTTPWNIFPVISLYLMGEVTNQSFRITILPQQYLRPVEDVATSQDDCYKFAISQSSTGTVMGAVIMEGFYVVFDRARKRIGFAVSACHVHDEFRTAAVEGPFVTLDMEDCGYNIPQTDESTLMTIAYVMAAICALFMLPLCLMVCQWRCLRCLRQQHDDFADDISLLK
T1 sequence (P07339 65-412, species assumed): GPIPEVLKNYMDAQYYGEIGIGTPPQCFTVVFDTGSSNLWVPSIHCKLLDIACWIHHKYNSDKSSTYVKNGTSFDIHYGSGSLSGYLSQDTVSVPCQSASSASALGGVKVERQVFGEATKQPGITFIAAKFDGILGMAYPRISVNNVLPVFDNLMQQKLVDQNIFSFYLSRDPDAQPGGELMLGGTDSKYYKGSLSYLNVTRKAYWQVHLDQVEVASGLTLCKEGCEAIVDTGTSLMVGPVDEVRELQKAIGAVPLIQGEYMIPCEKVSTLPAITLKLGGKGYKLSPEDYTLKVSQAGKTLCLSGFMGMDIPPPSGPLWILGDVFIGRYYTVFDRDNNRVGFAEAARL

Row | IC50 [3] [nM] | IC50 [4] [nM] | IC50 (Cathepsin D) [µM] | Compound | slowing of the rate of cognitive decline and memory loss (beta amyloid) | eye assessments in people [1] | eye toxicity finding in rat [2] | % reduction of rat CSF Abeta 40 levels at 10 mpk (Abeta 40) [%] | % reduction of rat brain levels at 10 mpk (Abeta 40) [%]
1 | – | – | – | Solanezumab: a monoclonal antibody which targets and binds to the central region of beta amyloid; Phase III clinical molecule | approximately 30% | – | – | – | –
2 | – | – | – | C[C@@]1(c2cc(-c3cncnc3)c(F)cc2F)CCSC(N)=N1 [LY 2811376] | – | did not show any abnormalities | damaged the pigment epithelium of the rat's eye | – | –
3 | 13.2 | 5.4 | 336 | COc1cnc2c(Nc3ccc4c(c3)[C@@]3(CCSC(N)=N3)c3cc(C5=CCCOC5)ncc3O4)nccc2c1 [Example 34, (5S)-3-(5,6-dihydro-2H-pyran-3-yl)-N~7~-(3-methoxy-1,7-naphthyridin-8-yl)-5′,6′-dihydrospiro[chromeno[2,3-c]pyridine-5,4′-[1,3]thiazine]-2′,7-diamine] | – | – | – | 44 | 5
4 | 17.9 | 2 | 400 | COc1cnc2c(Nc3ccc4c(c3)[C@@]3(CCOC(N)=N3)c3cc(C5CC5)ncc3O4)nccc2c1 [Example 38] | – | – | – | 39 | 25
